The CheMixHub viscosity set
± gives the uncertainty stated by the source.

Experiment: xn = mol fraction of the nth substance listed

CCCCCCN + C1CCCCC1
303.15 K, 101 kPa
Conditions | viscosity [mPa·s]
x2 = 0.1064 | 0.7192 ± 0.008
x2 = 0.2992 | 0.7005 ± 0.0078
x2 = 0.4953 | 0.7021 ± 0.0078
x2 = 0.5974 | 0.7073 ± 0.0079
x2 = 0.6964 | 0.7145 ± 0.008
x2 = 0.7966 | 0.72 ± 0.008
x2 = 0.898 | 0.7541 ± 0.0084

COC(=O)OC + C1CCCCC1
viscosity [mPa·s], 101.33 kPa
Conditions | x1 = 0.101 | x1 = 0.1993 | x1 = 0.3026 | x1 = 0.3999 | x1 = 0.5 | x1 = 0.5996 | x1 = 0.7039 | x1 = 0.8005 | x1 = 0.9028 | x1 = 0.9031
298.15 K | 0.686 ± 0.018 | 0.616 ± 0.017 | – | 0.535 ± 0.015 | 0.52 ± 0.015 | 0.507 ± 0.014 | 0.499 ± 0.014 | 0.502 ± 0.015 | 0.515 ± 0.015 | –
303.15 K | 0.636 ± 0.017 | 0.573 ± 0.016 | 0.533 ± 0.015 | 0.5 ± 0.014 | 0.485 ± 0.014 | 0.475 ± 0.014 | 0.47 ± 0.014 | 0.472 ± 0.014 | 0.491 ± 0.014 | –
308.15 K | 0.59 ± 0.016 | 0.535 ± 0.015 | 0.498 ± 0.014 | 0.463 ± 0.013 | 0.455 ± 0.013 | 0.445 ± 0.013 | 0.442 ± 0.013 | 0.444 ± 0.013 | – | 0.457 ± 0.014

COCCOCCOC + C1CCCCC1
viscosity [mPa·s], 101.33 kPa
Conditions | x1 = 0.0981 | x1 = 0.1885 | x1 = 0.2854 | x1 = 0.3996 | x1 = 0.5024 | x1 = 0.6005 | x1 = 0.7027 | x1 = 0.8014 | x1 = 0.898
298.15 K | 0.794 ± 0.01 | 0.765 ± 0.01 | 0.76 ± 0.01 | 0.769 ± 0.01 | 0.785 ± 0.01 | 0.808 ± 0.011 | 0.843 ± 0.011 | 0.882 ± 0.011 | 0.924 ± 0.012
303.15 K | 0.734 ± 0.01 | 0.706 ± 0.009 | 0.702 ± 0.009 | 0.714 ± 0.009 | 0.73 ± 0.01 | 0.751 ± 0.01 | 0.779 ± 0.01 | 0.813 ± 0.011 | 0.851 ± 0.011
308.15 K | 0.677 ± 0.009 | 0.654 ± 0.009 | 0.653 ± 0.009 | 0.65 ± 0.009 | 0.679 ± 0.009 | 0.697 ± 0.009 | 0.725 ± 0.01 | 0.756 ± 0.01 | 0.792 ± 0.01

Oc1ccccc1 + C1CCCCC1
viscosity [mPa·s], 303.15 K
Conditions | x2 = 0.0815 | x2 = 0.2049 | x2 = 0.2824 | x2 = 0.4033 | x2 = 0.501 | x2 = 0.5012 | x2 = 0.5905 | x2 = 0.7019 | x2 = 0.7969 | x2 = 0.8953
101 kPa | 5.517 ± 0.083 | 3.87 ± 0.058 | 3.177 ± 0.048 | 2.326 ± 0.035 | 1.864 ± 0.028 | – | 1.552 ± 0.024 | 1.255 ± 0.019 | 1.066 ± 0.016 | 0.898 ± 0.014
101.33 kPa | 5.517 ± 0.15 | 3.87 ± 0.1 | 3.177 ± 0.083 | 2.326 ± 0.061 | – | 1.864 ± 0.048 | 1.552 ± 0.04 | 1.255 ± 0.033 | 1.066 ± 0.028 | 0.898 ± 0.023

ClC(Cl)C(Cl)Cl + C1CCOC1
303.15 K, 101 kPa
Conditions | viscosity [mPa·s]
x2 = 0.0912 | 1.403 ± 0.011
x2 = 0.1846 | 1.347 ± 0.01
x2 = 0.2753 | 1.283 ± 0.01
x2 = 0.4617 | 1.108 ± 0.0087
x2 = 0.5426 | 1.015 ± 0.0081
x2 = 0.6763 | 0.8466 ± 0.0068
x2 = 0.7791 | 0.7155 ± 0.0059
x2 = 0.8994 | 0.5718 ± 0.0048
x2 = 0.9513 | 0.515 ± 0.0044

ClC(Cl)C(Cl)Cl + C1COCCO1
303.15 K, 101.33 kPa
Conditions | viscosity [mPa·s]
x2 = 0.0869 | 1.441 ± 0.01
x2 = 0.1835 | 1.419 ± 0.01
x2 = 0.2833 | 1.392 ± 0.01
x2 = 0.3491 | 1.372 ± 0.0099
x2 = 0.461 | 1.331 ± 0.0096
x2 = 0.5705 | 1.287 ± 0.0093
x2 = 0.6587 | 1.245 ± 0.009
x2 = 0.7613 | 1.198 ± 0.0087
x2 = 0.8189 | 1.169 ± 0.0084
x2 = 0.908 | 1.128 ± 0.0081

Oc1ccccc1 + C1COCCO1
308.15 K, 101 kPa
Conditions | viscosity [mPa·s]
x2 = 0.1 | 4.829 ± 0.059
x2 = 0.2 | 4.471 ± 0.055
x2 = 0.3 | 3.888 ± 0.048
x2 = 0.4 | 3.179 ± 0.039
x2 = 0.5 | 2.568 ± 0.032
x2 = 0.6 | 2.062 ± 0.026
x2 = 0.7 | 1.664 ± 0.021
x2 = 0.8 | 1.371 ± 0.017
x2 = 0.9 | 1.141 ± 0.015

ClC(Cl)C(Cl)Cl + C=C(C)C(=O)OC
303.15 K, 101 kPa
Conditions | viscosity [mPa·s]
x2 = 0.0942 | 1.422 ± 0.011
x2 = 0.1967 | 1.317 ± 0.011
x2 = 0.2785 | 1.235 ± 0.01
x2 = 0.4978 | 0.9971 ± 0.0085
x2 = 0.598 | 0.8879 ± 0.0079
x2 = 0.7131 | 0.7662 ± 0.0071
x2 = 0.905 | 0.5902 ± 0.0062

COCCOCCOC + CC1COC(=O)O1
viscosity [mPa·s], 101.33 kPa
Conditions | 298.15 K | 308.15 K | 318.15 K
x1 = 0.021 | 2.427 ± 0.028 | 2 ± 0.023 | 1.666 ± 0.02
x1 = 0.0421 | 2.372 ± 0.027 | 1.94 ± 0.022 | 1.641 ± 0.019
x1 = 0.0759 | 2.295 ± 0.026 | 1.87 ± 0.022 | 1.565 ± 0.018
x1 = 0.0976 | 2.245 ± 0.026 | 1.835 ± 0.021 | 1.529 ± 0.018
x1 = 0.1779 | 2.081 ± 0.024 | 1.693 ± 0.02 | 1.42 ± 0.017
x1 = 0.2468 | 1.953 ± 0.023 | 1.595 ± 0.019 | 1.332 ± 0.016
x1 = 0.3441 | 1.782 ± 0.021 | 1.458 ± 0.017 | 1.216 ± 0.015
x1 = 0.3815 | 1.719 ± 0.02 | 1.412 ± 0.017 | 1.176 ± 0.014
x1 = 0.4148 | 1.669 ± 0.02 | 1.362 ± 0.016 | 1.145 ± 0.014
x1 = 0.4853 | 1.573 ± 0.019 | 1.291 ± 0.016 | 1.083 ± 0.013
x1 = 0.5455 | 1.488 ± 0.018 | 1.226 ± 0.015 | 1.038 ± 0.013
x1 = 0.6708 | 1.324 ± 0.016 | 1.101 ± 0.014 | 0.938 ± 0.012
x1 = 0.7643 | 1.223 ± 0.015 | 1.017 ± 0.013 | 0.877 ± 0.011
x1 = 0.8341 | 1.148 ± 0.014 | 0.959 ± 0.012 | 0.829 ± 0.011
x1 = 0.8725 | 1.107 ± 0.014 | 0.928 ± 0.012 | 0.804 ± 0.01
x1 = 0.9275 | 1.06 ± 0.013 | 0.889 ± 0.011 | 0.774 ± 0.01
x1 = 0.9513 | 1.035 ± 0.013 | 0.874 ± 0.011 | 0.758 ± 0.01
x1 = 0.9796 | 1.005 ± 0.012 | 0.852 ± 0.011 | 0.739 ± 0.01

CCCC[N+](CCCC)(CCCC)CCCC.F[B-](F)(F)F + CC#N
viscosity [mPa·s], 100 kPa
Conditions | x1 = 0.004121 | x1 = 0.008132 | x1 = 0.01219 | x1 = 0.01614 | x1 = 0.02013 | x1 = 0.0241 | x1 = 0.02789 | x1 = 0.03177 | x1 = 0.03562 | x1 = 0.0394
293.15 K | 0.423 ± 0.009 | 0.446 ± 0.01 | 0.472 ± 0.01 | 0.499 ± 0.011 | 0.528 ± 0.011 | 0.559 ± 0.012 | 0.591 ± 0.013 | 0.625 ± 0.013 | 0.661 ± 0.014 | 0.698 ± 0.015
298.15 K | 0.404 ± 0.009 | 0.426 ± 0.009 | 0.45 ± 0.01 | 0.475 ± 0.01 | 0.502 ± 0.011 | 0.532 ± 0.011 | 0.561 ± 0.012 | 0.594 ± 0.013 | 0.628 ± 0.013 | 0.663 ± 0.014
303.15 K | 0.385 ± 0.008 | 0.406 ± 0.009 | 0.429 ± 0.009 | 0.453 ± 0.01 | 0.48 ± 0.01 | 0.507 ± 0.011 | 0.536 ± 0.011 | 0.567 ± 0.012 | 0.599 ± 0.013 | 0.633 ± 0.014
308.15 K | 0.369 ± 0.008 | 0.389 ± 0.008 | 0.411 ± 0.009 | 0.433 ± 0.009 | 0.458 ± 0.01 | 0.484 ± 0.01 | 0.511 ± 0.011 | 0.54 ± 0.012 | 0.57 ± 0.012 | 0.602 ± 0.013
313.15 K | 0.354 ± 0.008 | 0.373 ± 0.008 | 0.393 ± 0.008 | 0.414 ± 0.009 | 0.437 ± 0.009 | 0.462 ± 0.01 | 0.487 ± 0.01 | 0.514 ± 0.011 | 0.543 ± 0.012 | 0.572 ± 0.012
318.15 K | 0.34 ± 0.007 | 0.358 ± 0.008 | 0.377 ± 0.008 | 0.397 ± 0.008 | 0.418 ± 0.009 | 0.441 ± 0.009 | 0.464 ± 0.01 | 0.489 ± 0.01 | 0.516 ± 0.011 | 0.544 ± 0.012
323.15 K | 0.327 ± 0.007 | 0.344 ± 0.007 | 0.362 ± 0.008 | 0.38 ± 0.008 | 0.4 ± 0.009 | 0.422 ± 0.009 | 0.443 ± 0.009 | 0.467 ± 0.01 | 0.491 ± 0.01 | 0.517 ± 0.011
